From patent publication US7655629B2, “Peptides and their use for the treatment of HIV infections” (priority 2002, dated 2010)
Positions of bridges follow the written chain, without caps; N, C: chain ends. Non-standard residues stand in square brackets, D forms with d. Residues, ends and D or L forms follow the SMILES beside them. Tic = O=C(O)[C@@H]1Cc2ccccc2CN1; dTic = O=C(O)[C@H]1Cc2ccccc2CN1

Tested on: X4-tropic HIV-1 NL4-3
Details: read-out: IC50 NL4-3; P4-CCR5 cells, HIV-1 NL4-3, peptide 2 h before infection, readout three days after infection
Excerpt: These cells contain the β-galactosidase reporter gene under the control of the HIV-1 promoter. Thus, activation of the β-galactosidase reporter gene allows to measure the efficiency of HIV-1 infection and thus to quantitate the potency of HIV-1 inhibitors (Detheux M. et al., 2000; Journal of Experimental Medicine 192, 1501-1508; Münch et al., 2002; Antimicrobial Agents and Chemotherapy 46, 982-990).
To perform a typical infection assay, P4-CCR5 cells (Charneau et al., 1994; Journal of Molecular Biology 241, 651-662; Charneau et al., Virology. 1994 205, 247-53) were kept in RPMI 1640 medium supplemented with 10 volume % FCS. This cell line coexpresses CD4 and both HIV-1 coreceptors CCR5 and CXCR4 and contains the β-galactosidase gene under the control of the HIV-1 promoter. Virus stocks were generated by the calcium coprecipitation method as described (Detheux et al., J Exp Med. 192:1501-8; 2000), and the p24 antigen levels were quantitated with an HIV p24 ELISA kit obtained through the NIH AIDS Reagent Program. Cells were seeded in flat-bottomed 96-well dishes, cultured overnight, and incubated with the different doses of peptide for 2 h before infection with virus containing 1 ng of p24 antigen in a total volume of […] of medium. After overnight incubation, cells were washed twice and cultivated in fresh culture medium without inhibitory peptide. Three days after infection the cells were lysed, and infectivity was quantitated using the Galacto-Light Plus™ chemiluminescence reporter assay kit (Tropix, Bedford, Mass.) as recommended by the manufacturer. All infections were performed in quintuplicate.

| Molecule | IC50 |
| --- | --- |
| CC[C@H](C)[C@H](NC(=O)[C@@H]1CCCN1C(=O)[C@@H](NC(=O)[C@H](CCCCN)NC(=O)[C@H](CCC(=O)O)NC(=O)[C@@H](N)CC(C)C)[C@@H](C)CC)C(=O)NCC(=O)N[C@H](C(=O)N1CCC[C@H]1C(=O)N1CCC[C@@H]1C(=O)N[C@@H](CCC(=O)O)C(=O)N[C@H](C(=O)N[C@@H](C)C(=O)N[C@@H](Cc1ccccc1)C(=O)N[C@@H](CC(N)=O)C(=O)N[C@@H](CCCCN)C(=O)N1Cc2ccccc2C[C@H]1C(=O)N[C@@H](Cc1ccccc1)C(=O)N[C@H](C(=O)N[C@@H](Cc1ccccc1)C(=O)O)C(C)C)C(C)C)[C@@H](C)CC [VIR-485, LEKIPIGIPpEVAFNK(L-Tic)FVF] (H-LEKIPIGIP[dP]EVAFNK[Tic]FVF-OH) | 760 nM |
| CC[C@H](C)[C@H](NC(=O)[C@H](C)NC(=O)[C@H](CCC(=O)O)NC(=O)[C@@H](N)CC(C)C)C(=O)N1CCC[C@H]1C(=O)N[C@@H](CCSC)C(=O)N[C@@H](CO)C(=O)N[C@@H](C)C(=O)N1CCC[C@H]1C(=O)N1CCC[C@@H]1C(=O)N[C@@H](CCC(=O)O)C(=O)N[C@@H](Cc1ccccc1)C(=O)N[C@@H](CC(C)C)C(=O)N[C@@H](Cc1ccccc1)C(=O)NCC(=O)N[C@@H](CCCCN)C(=O)N1CCC[C@H]1C(=O)N[C@@H](Cc1ccccc1)C(=O)N[C@H](C(=O)N[C@@H](Cc1ccccc1)C(=O)O)C(C)C [VIR-396, LEAIPMSAPpEFLFGKPFVF] (H-LEAIPMSAP[dP]EFLFGKPFVF-OH) | 628 nM |
| CC[C@H](C)[C@H](NC(=O)[C@H](C)NC(=O)[C@H](CCC(=O)O)NC(=O)[C@@H](N)CC(C)C)C(=O)N1CCC[C@H]1C(=O)N[C@@H](CCSC)C(=O)N[C@@H](CO)C(=O)N[C@H](C(=O)N1CCC[C@H]1C(=O)N1CCC[C@@H]1C(=O)N[C@@H](CCC(=O)O)C(=O)N[C@@H](Cc1ccccc1)C(=O)N[C@@H](CC(C)C)C(=O)N[C@@H](Cc1ccccc1)C(=O)NCC(=O)N[C@@H](CCCCN)C(=O)N1CCC[C@H]1C(=O)N[C@@H](CCC(=O)O)C(=O)N[C@@H](Cc1ccccc1)C(=O)N[C@H](C(=O)N[C@@H](Cc1ccccc1)C(=O)O)C(C)C)[C@@H](C)CC [VIR-384, LEAIPMSIPpEFLFGKPEFVF] (H-LEAIPMSIP[dP]EFLFGKPEFVF-OH) | 622 nM |
| CC[C@H](C)[C@H](NC(=O)[C@H](C)NC(=O)[C@H](CCC(=O)O)NC(=O)[C@@H](N)CC(C)C)C(=O)N1CCC[C@H]1C(=O)N[C@@H](CS)C(=O)N[C@@H](CO)C(=O)N[C@H](C(=O)N1CCC[C@H]1C(=O)N1CCC[C@@H]1C(=O)N[C@@H](CS)C(=O)N[C@H](C(=O)N[C@@H](Cc1ccccc1)C(=O)N[C@@H](Cc1ccccc1)C(=O)NCC(=O)N[C@@H](CCCCN)C(=O)N1CCC[C@H]1C(=O)N[C@@H](Cc1ccccc1)C(=O)N[C@H](C(=O)N[C@@H](Cc1ccccc1)C(=O)O)C(C)C)C(C)C)[C@@H](C)CC [VIR-350, LEAIPCSIPpCVFFGKPFVF] (H-LEAIPCSIP[dP]CVFFGKPFVF-OH) | 198 nM |
| CC[C@H](C)[C@H](NC(=O)[C@H](C)NC(=O)[C@H](CCC(=O)O)NC(=O)[C@@H](N)CC(C)C)C(=O)N1CCC[C@H]1C(=O)N[C@@H](CCSC)C(=O)N[C@@H](CO)C(=O)N[C@H](C(=O)N1CCC[C@H]1C(=O)N1CCC[C@@H]1C(=O)N[C@@H](CCC(=O)O)C(=O)N[C@@H](Cc1ccccc1)C(=O)N[C@@H](CC(C)C)C(=O)N[C@@H](Cc1ccccc1)C(=O)NCC(=O)N[C@@H](CCCCN)C(=O)N1CCC[C@H]1C(=O)NCC(=O)N[C@@H](Cc1ccccc1)C(=O)N[C@H](C(=O)N[C@@H](Cc1ccccc1)C(=O)O)C(C)C)[C@@H](C)CC [VIR-377, LEAIPMSIPpEFLFGKPGFVF] (H-LEAIPMSIP[dP]EFLFGKPGFVF-OH) | 487 nM |
| LEAIPMKIPPEFLFGKPFVF [VIR-590] | 343 nM |
| CC[C@H](C)[C@H](NC(=O)[C@H](C)NC(=O)[C@H](CCC(=O)O)NC(=O)[C@@H](N)CC(C)C)C(=O)N1CCC[C@H]1C(=O)N[C@@H](CCSC)C(=O)N[C@@H](CO)C(=O)N[C@@H](Cc1ccccc1)C(=O)N1CCC[C@H]1C(=O)N1CCC[C@@H]1C(=O)N[C@@H](CCC(=O)O)C(=O)N[C@@H](Cc1ccccc1)C(=O)N[C@@H](CC(C)C)C(=O)N[C@@H](Cc1ccccc1)C(=O)NCC(=O)N[C@@H](CCCCN)C(=O)N1CCC[C@H]1C(=O)N[C@@H](Cc1ccccc1)C(=O)N[C@H](C(=O)N[C@@H](Cc1ccccc1)C(=O)O)C(C)C [VIR-400, LEAIPMSFPpEFLFGKPFVF] (H-LEAIPMSFP[dP]EFLFGKPFVF-OH) | 590 nM |
| H-LEAIPISIPPELAFAKPFVF-OH [VIR-286] | 559 nM |
| CC[C@H](C)[C@H](NC(=O)[C@H](C)NC(=O)[C@H](CCC(=O)O)NC(=O)[C@@H](N)CC(C)C)C(=O)N1CCC[C@H]1C(=O)N[C@@H](CCSC)C(=O)NCC(=O)N[C@H](C(=O)N1CCC[C@H]1C(=O)N1CCC[C@@H]1C(=O)N[C@@H](CCC(=O)O)C(=O)N[C@H](C(=O)N[C@@H](Cc1ccccc1)C(=O)N[C@@H](Cc1ccccc1)C(=O)N[C@@H](CC(N)=O)C(=O)N[C@@H](CCCCN)C(=O)N1CCC[C@H]1C(=O)N[C@@H](Cc1ccccc1)C(=O)N[C@H](C(=O)N[C@@H](Cc1ccccc1)C(=O)O)C(C)C)C(C)C)[C@@H](C)CC [VIR-322, LEAIPMGIPpEVFFNKPFVF] (H-LEAIPMGIP[dP]EVFFNKPFVF-OH) | 836 nM |
| CC[C@H](C)[C@H](NC(=O)[C@@H]1CCCN1C(=O)[C@@H](NC(=O)[C@H](C)NC(=O)[C@H](CCC(=O)O)NC(=O)[C@@H](N)CC(C)C)[C@@H](C)CC)C(=O)N[C@@H](CO)C(=O)N[C@H](C(=O)N1CCC[C@H]1C(=O)N1CCC[C@@H]1C(=O)N[C@@H](CCC(=O)O)C(=O)N[C@H](C(=O)N1Cc2ccccc2C[C@@H]1C(=O)N[C@@H](Cc1ccccc1)C(=O)N[C@@H](CC(N)=O)C(=O)N[C@@H](CCCCN)C(=O)N1CCC[C@H]1C(=O)N[C@@H](Cc1ccccc1)C(=O)N[C@H](C(=O)N[C@@H](Cc1ccccc1)C(=O)O)C(C)C)C(C)C)[C@@H](C)CC [VIR-445, LEAIPISIPpEV(D-Tic)FNKPFVF] (H-LEAIPISIP[dP]EV[dTic]FNKPFVF-OH) | 224 nM |
| CC[C@H](C)[C@H](NC(=O)[C@H](C)NC(=O)[C@H](CCC(=O)O)NC(=O)[C@@H](N)CC(C)C)C(=O)N1CCC[C@H]1C(=O)N[C@@H](CCSC)C(=O)NCC(=O)N[C@H](C(=O)N1CCC[C@H]1C(=O)N1CCC[C@@H]1C(=O)N[C@@H](CCC(=O)O)C(=O)N[C@@H](Cc1ccccc1)C(=O)N[C@@H](CC(C)C)C(=O)N[C@@H](Cc1ccccc1)C(=O)N[C@@H](CC(N)=O)C(=O)N[C@@H](CCCCN)C(=O)N1CCC[C@H]1C(=O)N[C@@H](Cc1ccccc1)C(=O)N[C@H](C(=O)N[C@@H](Cc1ccccc1)C(=O)O)C(C)C)[C@@H](C)CC [VIR-323, LEAIPMGIPpEFLFNKPFVF] (H-LEAIPMGIP[dP]EFLFNKPFVF-OH) | 924 nM |
| CC[C@H](C)[C@H](NC(=O)[C@@H]1CCCN1C(=O)[C@@H](NC(=O)[C@H](CC(=O)O)NC(=O)[C@H](CCC(=O)O)NC(=O)[C@@H](N)CC(C)C)[C@@H](C)CC)C(=O)NCC(=O)N[C@H](C(=O)N1CCC[C@H]1C(=O)N1CCC[C@@H]1C(=O)N[C@@H](CCC(=O)O)C(=O)N[C@@H](Cc1ccccc1)C(=O)N[C@@H](CC(C)C)C(=O)N[C@@H](Cc1ccccc1)C(=O)N[C@@H](CC(N)=O)C(=O)N[C@@H](CCCCN)C(=O)N1CCC[C@H]1C(=O)N[C@@H](Cc1ccccc1)C(=O)N[C@H](C(=O)N[C@@H](Cc1ccccc1)C(=O)O)C(C)C)[C@@H](C)CC [VIR-479, LEDIPIGIPpEFLFNKPFVF] (H-LEDIPIGIP[dP]EFLFNKPFVF-OH) | 479 nM |
| CC[C@H](C)[C@H](NC(=O)[C@H](C)NC(=O)[C@H](CCC(=O)O)NC(=O)[C@@H](N)CC(C)C)C(=O)N1CCC[C@H]1C(=O)N[C@H]1CSSC[C@@H](C(=O)N[C@@H](Cc2ccccc2)C(=O)N[C@@H](C)C(=O)N[C@@H](Cc2ccccc2)C(=O)N[C@@H](CC(N)=O)C(=O)N[C@@H](CCCCN)C(=O)N[C@@H](CC(=O)O)C(=O)N[C@@H](Cc2ccccc2)C(=O)N[C@H](C(=O)N[C@@H](Cc2ccccc2)C(=O)O)C(C)C)NC(=O)[C@@H]2CCCN2C(=O)[C@@H]2CCCN2C(=O)[C@H]([C@@H](C)CC)NC(=O)[C@H](CO)NC1=O [VIR-356] (H-LEAIPCSIPPCFAFNKDFVF-OH; disulfide 6-11) | 700 nM |
| CC[C@H](C)[C@H](NC(=O)[C@@H]1CCCN1C(=O)[C@@H](NC(=O)[C@H](CC(=O)O)NC(=O)[C@H](CCC(=O)O)NC(=O)[C@@H](N)CC(C)C)[C@@H](C)CC)C(=O)NCC(=O)N[C@H](C(=O)N1CCC[C@H]1C(=O)N1CCC[C@@H]1C(=O)N[C@@H](CCC(=O)O)C(=O)N[C@H](C(=O)N1Cc2ccccc2C[C@H]1C(=O)N[C@@H](Cc1ccccc1)C(=O)N[C@@H](CC(N)=O)C(=O)N[C@@H](CCCCN)C(=O)N1CCC[C@H]1C(=O)N[C@@H](Cc1ccccc1)C(=O)N[C@H](C(=O)N[C@@H](Cc1ccccc1)C(=O)O)C(C)C)C(C)C)[C@@H](C)CC [VIR-487, LEDIPIGIPpEV(L-Tic)FNKPFVF] (H-LEDIPIGIP[dP]EV[Tic]FNKPFVF-OH) | 256 nM |
